Test results: patent US12298319B2, “Method for measuring alpha value of muscarinic M1 receptor positive allosteric modulators” (Takeda Pharmaceutical Company Limited, priority 2017, dated 2025)
Where two headings read alike, the source gives them in different places.

How the values were obtained:
[1] = tested on: scopolamine-induced cognitive deficits in mice; assay: Y-maze task, scopolamine-induced cognitive deficits; format: in vivo, mouse; conditions: for scopolamine-induced cognitive deficits in Y-maze task: 5-min measurement
Method: The Y-maze apparatus has a three-arm maze with equal angles between all arms and made of black colored acrylic. Each arm consisted of 40 cm length, 4 cm width, and 12 cm walls. The Y-maze was located in a sound-attenuated room and illuminated at 10 lux. Compound B (10 or 30 mg/kg) and Compound A (1, 3 or 10 mg/kg) were pretreated orally at 60 min prior to the testing. After 30 min, memory impairment was induced by administering scopolamine (0.3 or 1 mg/kg, as hydrobromide salt, s.c.). At 30 min after the administration of scopolamine, mice were placed in the Y-maze and then spontaneous alternation performance was assessed visually for 5 to 8 min. Each animal underwent one trial. A mouse was considered to have entered an arm when all four paws were positioned in one third of the arm runway from the center of the Y maze. Alternations were defined as successive entries into each of the three arms on overlapping triplet sets, and alternation rate, expressed as a percentage, referred to the ratio of actual (total alternations) to possible alternations (total arm entries−2)×100.

[2] = tested on: IP1 production in the hippocampus; assay: In vivo IP1 assay, hippocampus of wild-type and M1R KO mice; set-up: species or system mouse
Excerpt: Hippocampus was isolated from the brain.

[3] = Plasma and brain concentration in samples of in vivo IP1 assay; set-up: species or system mouse; conditions: for concentration at 3 h: mouse, oral, mean±SD
Method: Plasma and brain concentration of Compound D in sample of in vivo IP1 assay at 3 h after oral treatment. Results represent the mean±SD. n=10 per group.
Plasma and brain concentration of Compound C in sample of in vivo IP1 assay at 3 h after oral treatment. Results represent the mean±SD. n=10 per group.

[4] = tested on: scopolamine-induced cognitive deficits in rats; assay: Novel object recognition task (NORT), scopolamine-induced memory deficits; format: in vivo, rat; conditions: for minimal efficacy dose in rats (cognitive improvement): NORT, p.o.; for minimal efficacy dose in rats (cognitive improvement) / NDI: scopolamine-treated rats
Method: On the day before testing, Long Evans rats were allowed to habituate to the behavioral test room environment for over 1 h, and then they were allowed to habituate to the empty test box (a gray-colored polyvinyl chloride box (40×40×50 cm)) for 10 min individually. Testing was comprised of two 3-min trials called the acquisition and the retention trials. These trials were separated by a given inter-trial interval (ITI). On the testing day, in the acquisition trial, rats were allowed to explore two identical objects (A1 and A2) for 3 min. In the retention trial, rats were again allowed to explore a familiar object (A3) and a novel object (B) for 3 min. The object exploration was defined as rats' licking, sniffing or touching the object with limbs while sniffing. Leaning against the object to look upward, standing or sitting on the object was excluded. The exploration time of each object (A1, A2, A3 and B) in each trial was measured manually. Novel discrimination index (NDI) was calculated using the following equation: novel object interaction/total interaction×100(%).
The acquisition and the retention trials were separated by 4 h ITI. […] Scopolamine (0.1 mg/kg) was administered subcutaneously 30 min prior to the acquisition trial.
(§1) The acquisition and the retention trials were separated by 4 h ITI.
as §1

[5] = biological target: T1, M4R (Homo sapiens, UniProt P08173); assay: Ca2+ flux assay in CHO-K1 cells expressing human M4R; format: cell-based; set-up: expressed in transfected cells; host or cells: CHO-K1; conditions: read-out: IP for M4R
T1 sequence (P08173 1-479): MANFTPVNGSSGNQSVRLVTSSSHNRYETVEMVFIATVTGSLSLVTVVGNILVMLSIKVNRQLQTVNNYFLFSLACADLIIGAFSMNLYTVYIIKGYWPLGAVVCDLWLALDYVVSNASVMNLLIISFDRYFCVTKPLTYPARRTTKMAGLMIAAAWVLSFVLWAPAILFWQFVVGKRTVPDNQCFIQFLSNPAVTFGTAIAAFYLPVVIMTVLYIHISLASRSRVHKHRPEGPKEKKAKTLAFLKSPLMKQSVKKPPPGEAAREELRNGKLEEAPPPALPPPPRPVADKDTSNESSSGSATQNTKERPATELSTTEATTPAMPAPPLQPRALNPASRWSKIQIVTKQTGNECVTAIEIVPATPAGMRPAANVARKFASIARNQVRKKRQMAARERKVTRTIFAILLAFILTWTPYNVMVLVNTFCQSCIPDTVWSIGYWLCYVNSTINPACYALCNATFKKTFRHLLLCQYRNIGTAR

[6] = biological target: T2, M5R (Homo sapiens, UniProt P08912); assay: Ca2+ flux assay in CHO-K1 cells expressing human M5R; format: cell-based; set-up: expressed in transfected cells; host or cells: CHO-K1; conditions: read-out: IP for M5R
T2 sequence (P08912 1-532): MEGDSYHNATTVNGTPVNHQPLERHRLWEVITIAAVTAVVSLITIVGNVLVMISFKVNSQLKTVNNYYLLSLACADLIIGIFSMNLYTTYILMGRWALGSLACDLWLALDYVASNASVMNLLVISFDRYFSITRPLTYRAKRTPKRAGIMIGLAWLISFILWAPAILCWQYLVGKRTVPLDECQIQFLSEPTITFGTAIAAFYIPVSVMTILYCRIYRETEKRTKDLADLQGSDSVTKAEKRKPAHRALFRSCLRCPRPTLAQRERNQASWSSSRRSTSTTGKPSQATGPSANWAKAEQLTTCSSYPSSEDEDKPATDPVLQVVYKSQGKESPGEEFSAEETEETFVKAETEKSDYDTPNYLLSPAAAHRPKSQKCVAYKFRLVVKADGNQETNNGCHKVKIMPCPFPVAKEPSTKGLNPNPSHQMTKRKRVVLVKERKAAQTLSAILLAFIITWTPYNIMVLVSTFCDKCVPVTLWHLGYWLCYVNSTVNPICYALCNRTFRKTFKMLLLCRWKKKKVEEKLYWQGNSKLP

With Cn1ccc(-c2ccc(CN3Cc4cccc(O[C@H]5CCCC[C@@H]5O)c4C3=O)cc2)n1 [Compound A, 7-(((1S,2S)-2-hydroxycyclohexyl)oxy)-2-(4-(1-methyl-1H-pyrazol-3-yl)benzyl)isoindolin-1-one] the “scopolamine-induced cognitive deficits in Y-maze task” value ([1]; 10 mg/kg p.o.) was “trends to improve” and the “scopolamine-induced decrease in spontaneous alternation ratio in Y-maze task” value ([1]; 10 mg/kg p.o., 8 min measurement) was “significantly ameliorated”.

For Cn1cc(-c2ccc(CN3Cc4cccc(Oc5c(F)cccc5C#N)c4C3=O)cc2)cn1 [Compound B, 3-fluoro-2-((2-(4-(1-methyl-1H-pyrazol-4-yl)benzyl)-3-oxo-2,3-dihydro-1H-isoindol-4-yl)oxy)benzonitrile], the “scopolamine-induced cognitive deficits in Y-maze task” value ([1]; 30 mg/kg p.o.) was “significantly ameliorated”.

In the case of Cn1cc(-c2ccc(Cc3cc4c(=O)n([C@H]5CCCC[C@@H]5O)cnc4c4ccccc34)cn2)cn1 [Compound C, 3-((1S,2S)-2-hydroxycyclohexyl)-6-((6-(1-methyl-1H-pyrazol-4-yl)pyridin-3-yl)methyl)benzo[h]quinazoline-4(3H)-one, reference compound], the “IP1 production in the hippocampus” value ([2]; M1R KO mice, 10 mg/kg p.o.) is reported as “not in M1R KO mice”, the “IP1 production in the hippocampus” value ([2]; wild-type mice, 10 mg/kg p.o.) is reported as “significantly induced IP1 production” and the “differences in brain concentration between wild-type and M1R KO mice” value ([3]; 10 mg/kg p.o.) is reported as “No significant differences”. The concentration at 3 h ([3]; brain, 10 mg/kg, 10 mg/kg p.o., M1KO mice, read-out: Brain concentration) was 62.7 ± 9.1 ng/g, the concentration at 3 h ([3]; brain, 10 mg/kg, 10 mg/kg p.o., wild-type mice, read-out: Brain concentration) was 63.7 ± 16.8 ng/g and the concentration at 3 h ([3]; plasma, 10 mg/kg, 10 mg/kg p.o., M1KO mice, read-out: Plasma concentration) was 6130 ± 1160 ng/mL. The concentration at 3 h ([3]; plasma, 10 mg/kg, 10 mg/kg p.o., wild-type mice, read-out: Plasma concentration) was 2340 ± 628 ng/mL, the “scopolamine-induced cognitive deficits in NORT” value ([4]; 0.1 and 0.3 mg/kg p.o., rats, P≤0.025) was “significantly ameliorated scopolamine-induced cognitive deficits” and the “minimal efficacy dose in rats (cognitive improvement)” value [4] was 0.1 mg/kg. For the same compound, the NDI ([4]; Compound C 0.03 mg/kg p.o. alone, Example 29) was 52.3%, the EC50 [5] was greater than 1 µM and the EC50 [6] was greater than 1 µM.

With Cc1c(Cc2ccc(-n3cccn3)cc2)cc2c(c1F)CN([C@H]1COCC[C@@H]1O)C2=O [Compound D, 4-fluoro-2-[(3S,4S)-4-hydroxytetrahydro-2H-pyran-3-yl]-5-methyl-6-[4-(1H-pyrazol-1-yl)benzyl]-2,3-dihydro-1H-isoindol-1-one] the “IP1 production in the hippocampus” value ([2]; M1R KO mice, 3 mg/kg p.o.) was “did not induce IP1 production”, the “IP1 production in the hippocampus” value ([2]; wild-type mice, 3 mg/kg p.o., 3 h, % of vehicle-treated control) was 153.3±9.3% and the “differences in PK profile between wild-type and M1R KO mice” value ([3]; 3 mg/kg p.o.) was “No significant differences”. It also gave a concentration at 3 h ([3]; brain, 3 mg/kg, 3 mg/kg p.o., M1KO mice, read-out: Brain concentration) of 370 ± 50 ng/g, a concentration at 3 h ([3]; brain, 3 mg/kg, 3 mg/kg p.o., wild-type mice, read-out: Brain concentration) of 350 ± 80 ng/g and a concentration at 3 h ([3]; plasma, 3 mg/kg, 3 mg/kg p.o., M1KO mice, read-out: Plasma concentration) of 3260 ± 260 ng/mL. The concentration at 3 h ([3]; plasma, 3 mg/kg, 3 mg/kg p.o., wild-type mice, read-out: Plasma concentration) was 3110 ± 490 ng/mL, the “NDI in NORT, scopolamine-induced deficits” value ([4]; 0.3, 1, and 3 mg/kg p.o., rats, P≤0.025) was “significantly increased NDI” and the “minimal efficacy dose in rats (cognitive improvement)” value [4] was 0.3 mg/kg. For the same compound, the NDI ([4]; 0.1 mg/kg p.o. alone, Example 28) was 54.1%, the NDI ([4]; Compound D 0.1 mg/kg p.o. alone, Example 31) was 56.8% and the EC50 [5] was greater than 10 µM. For the same compound, the EC50 [6] was greater than 10 µM.
